Experimental data taken from patent publication US20110098288A1, “SULFONAMIDES AS ZAP-70 INHIBITORS” (priority 2008, published 2011).
pIC50: −log10 of the molar value. Counter-ions that a name gives are not always drawn.

Each molecule was assayed against T1, ZAP-70 (Homo sapiens, UniProt P43403) (assay: ZAP-70 kinobeads assay). Conditions: competition with immobilized aminopyrido-pyrimidine ligand 24 in cell lysate; ZAP-70 detected by dot blot.
T1 construct: endogenous in cells; host or cells: cell lysate
T1 sequence (P43403 1-619): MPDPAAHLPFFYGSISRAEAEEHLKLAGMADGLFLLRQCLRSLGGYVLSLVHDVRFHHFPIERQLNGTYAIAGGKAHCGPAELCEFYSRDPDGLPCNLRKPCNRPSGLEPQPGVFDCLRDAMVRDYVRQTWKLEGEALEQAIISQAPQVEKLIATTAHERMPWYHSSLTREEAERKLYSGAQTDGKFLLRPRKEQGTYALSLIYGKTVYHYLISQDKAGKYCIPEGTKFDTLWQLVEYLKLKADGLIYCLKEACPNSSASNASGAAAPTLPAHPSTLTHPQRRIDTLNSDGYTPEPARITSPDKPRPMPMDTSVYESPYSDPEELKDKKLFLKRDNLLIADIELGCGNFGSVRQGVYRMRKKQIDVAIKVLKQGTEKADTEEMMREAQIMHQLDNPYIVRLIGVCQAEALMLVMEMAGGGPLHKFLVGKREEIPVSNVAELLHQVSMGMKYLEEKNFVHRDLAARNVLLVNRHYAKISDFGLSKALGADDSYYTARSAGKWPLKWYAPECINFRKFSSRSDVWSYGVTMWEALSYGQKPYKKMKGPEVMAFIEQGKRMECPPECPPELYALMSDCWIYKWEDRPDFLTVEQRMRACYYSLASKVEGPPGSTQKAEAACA
Assay type: binding
Experimental: The compounds of the present invention as described in the previous examples can be tested in the ZAP-70 kinobeads assay as described (EP-A 1862802 and WO-A 2007/137867). Briefly, test compounds (at various concentrations) and the affinity matrix with the immobilized aminopyrido-pyrimidine ligand 24 are added to cell lysate aliquots and allowed to bind to the proteins in the lysate sample. After the incubation time the beads with captured proteins are separated from the lysate. Bound proteins are then eluted and the presence ZAP-70 is detected and quantified using a specific antibody in a dot blot procedure and the Odyssey infrared detection system. Conventionally, ZAP-70 kinase activity can be measured using purified or recombinant enzyme in a solution-based assay with protein or peptide substrates (Isakov et al., 1996, J. Biol. Chem. 271(26), 15753-15761; Moffat et al., 1999, Bioorg. Med. Chem. Letters 9, 3351-3356).

Question: How did the pIC50 turn out when Cc1nc(-c2ccc(Nc3ncc(F)c(Nc4ccccc4NS(C)(=O)=O)n3)cc2)no1 [Example 197, N-(2-(5-fluoro-2-(4-(5-methyl-1,2,4-oxadiazol-3-yl)phenylamino)pyrimidin-4-ylamino)phenyl)methanesulfonamide] was run?
Answer: 5.00 to 6.00

Question: With Cc1nc(-c2cccc(Nc3ncc(Cl)c(Nc4ccccc4NS(C)(=O)=O)n3)c2)no1 [Example 208, N-(2-(5-chloro-2-(3-(5-methyl-1,2,4-oxadiazol-3-yl)phenylamino)pyrimidin-4-ylamino)phenyl)methanesulfonamide] as the molecule, how does the pIC50 read?
Answer: 6.00 to 7.00

Question: With COc1ccc(Nc2nc(Nc3cc(OC)c(OC)c(OC)c3)ncc2F)c(NS(C)(=O)=O)c1C [Example 163, N-(6-(5-fluoro-2-(3,4,5-trimethoxyphenylamino)pyrimidin-4-ylamino)-3-methoxy-2-methylphenyl)methanesulfonamide] as the molecule, how does the pIC50 read?
Answer: 6.00 to 7.00

Question: How did the pIC50 turn out when CS(=O)(=O)Nc1ccccc1Nc1nc(Nc2cccc(OCC(=O)O)c2)ncc1F [Example 99, 2-(3-(5-fluoro-4-(2-(methylsulfonamido)phenylamino)pyrimidin-2-ylamino)phenoxy)acetic acid hydrochloride] was run?
Answer: 6.00 to 7.00

Question: How did the pIC50 turn out when COc1cc(Nc2ncc(F)c(Nc3ccccc3NS(C)(=O)=O)n2)ccc1C [Example 73, N-(2-(5-fluoro-2-(3-methoxy-4-methylphenylamino)pyrimidin-4-ylamino)phenyl)methanesulfonamide] was run?
Answer: 6.00 to 7.00

Question: How did the pIC50 turn out when CS(=O)(=O)Nc1ccccc1Nc1nc(Nc2ccc(-n3cnnn3)cc2)ncc1F [Example 195, N-(2-(2-(4-(1H-tetrazol-1-yl)phenylamino)-5-fluoropyrimidin-4-ylamino)phenyl)methanesulfonamide] was run?
Answer: 5.00 to 6.00

Question: With CCOc1cccc(Nc2ncc(F)c(Nc3ccccc3NS(C)(=O)=O)n2)c1 [Example 13, N-(2-(2-(3-ethoxyphenylamino)-5-fluoropyrimidin-4-ylamino)phenyl)methanesulfonamide] as the molecule, how does the pIC50 read?
Answer: 5.00 to 6.00

Question: With CS(=O)(=O)Nc1ccccc1Nc1nc(Nc2cccc(OC(F)F)c2)ncc1Br [Example 103, N-(2-(5-bromo-2-(3-(difluoromethoxy)phenylamino)pyrimidin-4-ylamino)phenyl)methanesulfonamide] as the molecule, how does the pIC50 read?
Answer: 6.00 to 7.00

Question: COc1cc(Nc2ncc(F)c(Nc3ccccc3NS(=O)(=O)c3cccnc3)n2)cc(OC)c1OC [Example 52, N-(2-(5-fluoro-2-(3,4,5-trimethoxyphenylamino)pyrimidin-4-ylamino)phenyl)pyridine-3-sulfonamide] was tested. Which pIC50 did it give?
Answer: 5.00 to 6.00

Question: COc1cc(Nc2ncc(F)c(Nc3cc(C)cc(C)c3NS(C)(=O)=O)n2)cc(OC)c1OC [Example 186, N-(2-(5-fluoro-2-(3,4,5-trimethoxyphenylamino)pyrimidin-4-ylamino)-4,6-dimethylphenyl)methanesulfonamide] was tested. Which pIC50 did it give?
Answer: 5.00 to 6.00

Question: How did the pIC50 turn out when CS(=O)(=O)Nc1ccccc1Nc1nc(Nc2ccc(C#N)cc2)ncc1F [Example 196, N-(2-(2-(4-cyanophenylamino)-5-fluoropyrimidin-4-ylamino)phenyl)methanesulfonamide] was run?
Answer: 5.00 to 6.00

Question: CS(=O)(=O)Nc1ccccc1Nc1nc(Nc2ccc3c(c2)OCC(=O)N3)ncc1F [Example 23, N-(2-(5-fluoro-2-(3-oxo-3,4-dihydro-2H-benzo[b][1,4]oxazin-7-ylamino)pyrimidin-4-ylamino)phenyl)methanesulfonamide] was tested. Which pIC50 did it give?
Answer: 6.00 to 7.00

Question: CS(=O)(=O)Nc1ccccc1Nc1nc(Nc2ccccc2)ncc1Br [Example 102, N-(2-(5-bromo-2-(phenylamino)pyrimidin-4-ylamino)phenyl)methanesulfonamide hydrochloride] was tested. Which pIC50 did it give?
Answer: 6.00 to 7.00

Question: With CS(=O)(=O)Nc1ccccc1Nc1nc(Nc2cccc(-c3cnco3)c2)ncc1F [Example 193, N-(2-(5-fluoro-2-(3-(oxazol-5-yl)phenylamino)pyrimidin-4-ylamino)phenyl)methanesulfonamide] as the molecule, how does the pIC50 read?
Answer: 6.00 to 7.00

Question: With Cc1cc(C)n(-c2ccc(Nc3ncc(Cl)c(Nc4ccccc4NS(C)(=O)=O)n3)cc2)n1 [Example 210, N-(2-(5-chloro-2-(4-(3,5-dimethyl-1H-pyrazol-1-yl)phenylamino)pyrimidin-4-ylamino)phenyl)methanesulfonamide] as the molecule, how does the pIC50 read?
Answer: 6.00 to 7.00

Question: CS(=O)(=O)Nc1ccccc1Nc1nc(Nc2cccc(C#N)c2)ncc1Cl [Example 205, N-(2-(5-chloro-2-(3-cyanophenylamino)pyrimidin-4-ylamino)phenyl)methanesulfonamide] was tested. Which pIC50 did it give?
Answer: 6.00 to 7.00

Question: How did the pIC50 turn out when CCN(c1ccccc1Nc1nc(Nc2ccc(OC)c(OC)c2)ncc1F)S(C)(=O)=O [Example 157, N-(2-(2-(3,4-dimethoxyphenylamino)-5-fluoropyrimidin-4-ylamino)phenyl)-N-ethylmethanesulfonamide] was run?
Answer: 5.00 to 6.00

Question: With CCN(CC)C(=O)COc1cccc(Nc2ncc(F)c(Nc3ccccc3NS(C)(=O)=O)n2)c1 [Example 100, N,N-diethyl-2-(3-(5-fluoro-4-(2-(methylsulfonamido)phenylamino)pyrimidin-2-ylamino)phenoxy)acetamide 2,2,2-trifluoroacetate] as the molecule, how does the pIC50 read?
Answer: 6.00 to 7.00

Question: With Cc1cc(C)n(-c2cccc(Nc3ncc(Cl)c(Nc4ccccc4NS(C)(=O)=O)n3)c2)n1 [Example 209, N-(2-(5-chloro-2-(3-(3,5-dimethyl-M-pyrazol-1-yl)phenylamino)pyrimidin-4-ylamino)phenyl)methanesulfonamide] as the molecule, how does the pIC50 read?
Answer: 5.00 to 6.00

Question: CS(=O)(=O)Nc1ccccc1Nc1nc(Nc2ccc(CC(=O)O)cc2)ncc1Cl [Example 148, 2-(4-(5-chloro-4-(2-(methylsulfonamido)phenylamino)pyrimidin-2-ylamino)phenyl)acetic acid] was tested. Which pIC50 did it give?
Answer: > 7.00

Question: With COc1cc(Nc2ncc(F)c(Nc3ccccc3NS(C)(=O)=O)n2)cc(OC)c1OCCN1CCCC1 [Example 75, N-(2-(2-(3,5-dimethoxy-4-(2-(pyrrolidin-1-yl)ethoxy)phenylamino)-5-fluoropyrimidin-4-ylamino)phenyl)methanesulfonamide] as the molecule, how does the pIC50 read?
Answer: > 7.00

Question: How did the pIC50 turn out when CS(=O)(=O)Nc1ccccc1Nc1nc(Nc2cccc(-c3nnn[nH]3)c2)ncc1F [Example 190, N-(2-(2-(3-(1H-tetrazol-5-yl)phenylamino)-5-fluoropyrimidin-4-ylamino)phenyl)methanesulfonamide] was run?
Answer: 5.00 to 6.00

Question: How did the pIC50 turn out when Cc1nc(-c2cccc(Nc3ncc(F)c(Nc4ccccc4NS(C)(=O)=O)n3)c2)no1 [Example 189, N-(2-(5-fluoro-2-(3-(5-methyl-1,2,4-oxadiazol-3-yl)phenylamino)pyrimidin-4-ylamino)phenyl)methanesulfonamide] was run?
Answer: 5.00 to 6.00

Question: CS(=O)(=O)Nc1ccccc1Nc1nc(Nc2ccc(-n3cnnn3)cc2)ncc1Cl [Example 214, N-(2-(2-(4-(1H-tetrazol-1-yl)phenylamino)-5-chloropyrimidin-4-ylamino)phenyl)methanesulfonamide] was tested. Which pIC50 did it give?
Answer: 6.00 to 7.00

Question: With Cn1ccc(-c2cccc(Nc3ncc(F)c(Nc4ccccc4NS(C)(=O)=O)n3)c2)n1 [Example 201, N-(2-(5-fluoro-2-(3-(1-methyl-1H-pyrazol-3-yl)phenylamino)pyrimidin-4-ylamino)phenyl)methanesulfonamide] as the molecule, how does the pIC50 read?
Answer: 5.00 to 6.00

Question: Cc1n[nH]c(-c2ccc(Nc3ncc(F)c(Nc4ccccc4NS(C)(=O)=O)n3)cc2)n1 [Example 191, N-(2-(5-fluoro-2-(4-(3-methyl-1H-1,2,4-triazol-5-yl)phenylamino)pyrimidin-4-ylamino)phenyl)methanesulfonamide] was tested. Which pIC50 did it give?
Answer: 5.00 to 6.00

Question: Cc1ccc(C)n1-c1cccc(Nc2ncc(F)c(Nc3ccccc3NS(C)(=O)=O)n2)c1 [Example 202, N-(2-(2-(3-(2,5-dimethyl-1H-pyrrol-1-yl)phenylamino)-5-fluoropyrimidin-4-ylamino)phenyl)methanesulfonamide] was tested. Which pIC50 did it give?
Answer: 5.00 to 6.00

Question: With CN(c1ccccc1Nc1nc(Nc2ccc(OCCN3CCOCC3)cc2)ncc1F)S(C)(=O)=O [Example 111, N-(2-(5-fluoro-2-(4-(2-morpholinoethoxy)phenylamino)pyrimidin-4-ylamino)phenyl)-N-methylmethanesulfonamide] as the molecule, how does the pIC50 read?
Answer: 6.00 to 7.00

Question: With CS(=O)(=O)Nc1ccccc1Nc1nc(Nc2ccc(-n3cccn3)cc2)ncc1Cl [Example 207, N-(2-(2-(4-(1H-pyrazol-1-yl)phenylamino)-5-chloropyrimidin-4-ylamino)phenyl)methanesulfonamide] as the molecule, how does the pIC50 read?
Answer: 6.00 to 7.00

Question: COc1ccc(Nc2ncc(F)c(Nc3ccccc3NS(C)(=O)=O)n2)cc1Cl [Example 19, N-(2-(2-(3-chloro-4-methoxyphenylamino)-5-fluoropyrimidin-4-ylamino)phenyl)methanesulfonamide] was tested. Which pIC50 did it give?
Answer: 5.00 to 6.00

Question: With CS(=O)(=O)Nc1ccccc1Nc1nc(Nc2cccc(-n3cnnn3)c2)ncc1Cl [Example 203, N-(2-(2-(3-(1H-tetrazol-1-yl)phenylamino)-5-chloropyrimidin-4-ylamino)phenyl)methanesulfonamide] as the molecule, how does the pIC50 read?
Answer: 6.00 to 7.00
